Results published in patent publication US20210253511A1, “COMPOUNDS AND USES FOR THE TREATMENT AND PREVENTION OF DISEASES AND CONDITIONS ASSOCIATE WITH OR AGGREVATED BY IMPARED MITOPHAGY” (Yissum Research Development Company of The Hebrew …, priority 2018, published 2021).

Tested on: C. elegans worms in 200 mM paraquat (PQ)
Test: Paraquat survival assay
Type: in vivo
Conditions: 200 mM PQ; concentration not given; log-rank test
Protocol: C. elegans strains were grown at 21° C. on nematode growth media (NGM) agar plates containing diamines or vehicle as a control. The NGM agar plates were prepared as described in L. Livshits, E. Gross, A method for measuring sulfide toxicity in the nematode Caenorhabditis elegans, MethodsX 4 (2017) 250-255. A suspension of 3 g sodium chloride (NaCl), 20 g Bacto agar, and 2.5 g of Bacto peptone in 1 L of double distilled water (DDW) was mixed and autoclaved. Then, the medium was cooled to 55° C. and supplemented with 1 ml of 100 mM CaCl2), 1 ml of 100 mM MgSO4, 25 ml of 1 M potassium phosphate buffer pH 6, and 1 ml of 5 mg/ml cholesterol (the cholesterol was dissolved in ethanol). Diamines or DDW (vehicle) were added to the NGM-agar solution. For RNAi NGM-agar plates, Isopropyl β-D-1-thiogalactopyranoside (IPTG) and ampicillin were added to a final concentration of 1 mM and 100 μg/ml, respectively. The NGM-agar solution was thoroughly vortex mixed and immediately poured into 35 mm petri dish (4 ml per plate). NGM-plates were covered with aluminum foil and dried for 24 h at room temperature (RT). 24 h before the experiment, plates were seeded with 100 μl bacteria (OD600=0.6, OP50 or HT115(DE3)). The seeded plates were covered with aluminum foil and dried for 24 h at RT.
To get synchronized C. elegans larvae, the method described in W. B. Wood, The Nematode Caenorhabditis Elegans, Cold Spring Harbor Laboratory 1988, was performed. In brief, hypochlorite/NaOH solution was made by mixing 1 ml of 5% solution of sodium hypochlorite, 800 μl of 2.5 N NaOH and 2.2 ml DDW to final concentrations of 0.5 N NaOH and 1.25% sodium hypochlorite. M9 buffer was made by dissolving 3 g KH2PO4, 6 g Na2HPO4, 5 g NaCl and 1 ml of MgSO4 from 1M stock in 1 litter of DDW. The solution pH was adjusted to 7 and sterilizes by filtration (with a 0.2 µm filter bottle). Gravid hermaphrodites was washed from the NGM plates into a 15 ml tube with M9 buffer and centrifuged for 2 min at 900×g, RT. Liquid was removed until 2 ml worms' suspension was left and added 2 ml of hypochlorite/NaOH solution. A 5 ml syringe with a 21-gauge needle was used to aspirate the worm suspension back and forth several times. After 3 min it was observed the state of the worms using a dissecting stereoscope. At this stage, approximately 50% of worms should appear broken and many of the embryos should float in the solution. The embryos were immediately sedimented using centrifugation (1690×g for 2 min) and carefully removed the supernatant and add 10 ml of M9 buffer. This washing step was repeated three additional times. The supernatant was removed until 2 ml remains and rotated the tube for 16 h at RT. The hatched L larvae were collected by centrifugation (1690×g for 3 min) and put ˜80 L in each seeded NGM assay plate. Grow the L1 (Day 1) for 3 days until they become young adults (Day 3).

Structure (SMILES) | protective effect on worms' survival in PQ (figure legend)
N=C(N)NCCCCCCNC(=N)N [1,6-Diguanidinohexane] | significant protective effect
NOCCCCCCCCON [1,8-diaminooxy-octane] | significant protective effect
N=C(N)NCCCCCCCCNC(=N)N [1,8-diguanidinooctane] | significant protective effect
NOCCCCCCCCCON [1,9-diaminooxy-nonane] | significant protective effect

Same assay, conditions: compound at 0.0625 mM; 200 mM PQ; vs control worms

Structure (SMILES) | survival of worms in paraquat
N=C(N)NCCCCCCNC(=N)N [1,6-Diguanidinohexane] | significantly improve the survival of worms

Same assay, conditions: compound at 0.25 mM; 200 mM PQ; vs control worms

Structure (SMILES) | survival of worms in paraquat
NCCCCCCN [1,6-Diaminohexane] | did not have any effect
N=C(N)NCCCCCCNC(=N)N [1,6-Diguanidinohexane] | significantly improve the survival of worms
NCCCCCCCCCCN [1,10-Diaminodecane] | significantly improved worms' survival
NCCCCCCCCCCCCN [1,12-Diaminododecane] | did not

Same assay, conditions: compound at 4 mM; 200 mM PQ; vs control worms

Structure (SMILES) | survival of worms in paraquat
NCCCCCCN [1,6-Diaminohexane] | did not have any effect
NCCCCCCCCCCN [1,10-Diaminodecane] | significantly decreased worms' survival
NCCCCCCCCCCCCN [1,12-Diaminododecane] | significantly improved their survival

Same assay, conditions: tested at 0.0625 mM and 0.25 mM, not split; 200 mM PQ

Structure (SMILES) | survival of worms in paraquat
NOCCCCCCCCON [1,8-diaminooxy-octane] | significantly improved the survival of worms in PQ
N=C(N)NCCCCCCCCNC(=N)N [1,8-diguanidinooctane] | significantly improved the survival of worms in PQ
NOCCCCCCCCCON [1,9-diaminooxy-nonane] | significantly improved the survival of worms in PQ
